# Source: patent US12213957B2, “Use of aminoacetonitrile compounds for the treatment of infection and disease” (PITNEY PHARMACEUTICALS PTY LIMITED, priority 2020, dated 2025)
# Values joined by “and” are separate entries in the source; they are usually repeats but may differ in a detail not shown here. Identical values can stand only once. Like-named read-outs stand apart in the source and are kept apart here.
# Assays:
# SARS-CoV-2 [1] = assay type: cell-based; conditions: Calu-3 human cells, concentrations from 3.00 μM down to 0.013 μM
# SARS-CoV-2 [2] = assay type: cell-based; conditions: 0.032 μM and 0.064 μM compared to 40 μM and 8 μM values, p<0.05 and <0.001
# VERO cells [3] = test system: VERO cells
# VERO cells [4] = assay: cells; conditions: Chlorocebus sabaeus, 120 h, read-out: 1050 (estimated from the 8 μM and 40 μM values)
# [5] = test system: ribosomal protein S6 kinase beta-1 (RPS6KB1); assay: RPS6KB1 phosphorylation levels in patients' PBMCs (mTOR signalling); assay type: in vivo, human; conditions: 5 mg/kg bw daily
# cancer = assay: Phase 1b clinical trial, RECIST1.1 by computerised tomography; assay type: in vivo, human; conditions: monepantel as Zolvix daily 5 mg/kg bw
# Protocol: (§1) In a Phase 1 b clinical trial, monepantel administered as Zolvix daily to four human patients (PA02, PA04, PA06 and PA07) at 5 mg/kg bw provided an anticancer effect by computerised tomography (CT) scanning according to RECIST1.1 criteria. […] Evidence of mTOR pathway signalling inhibition in these patients was supported by the finding of decreased eurkaryotic translation initiation factor 4E-binding protein 1 (EIF-4EBP1) phosphorylation levels from the preparations of PBMCs from PA02, PA04 and PA06 (FIG. 1B). EIF-4EIBP1 phosphorylation levels were not assayed from preparations of PBMCs from PA07.
# [6] = test system: eurkaryotic translation initiation factor 4E-binding protein 1 (EIF-4EBP1); assay: EIF-4EBP1 phosphorylation levels in patients' PBMCs (mTOR signalling); assay type: in vivo, human; conditions: 5 mg/kg bw daily
# Protocol: as §1
# [7] = Blood plasma levels in human patients; assay type: in vivo; conditions: monepantel as Zolvix 5 mg/kg bw daily
# Protocol: as §1
# Blood plasma monepantel and monepantel sulfone levels of all four patients were recorded at intervals throughout treatment (Table 2).
# [8] = test system: treatment naïve B cell lymphoma; assay: Phase 2 veterinary clinical trial, RECIST 1.1 tumour response; assay type: in vivo, dog
# Protocol: Superficial tumour lesions were measured with calipers, while lesions within the body were assessed by X-Ray, ultrasound, computer tomography (CT) and/or physical palpitation. Baseline Day 0 (D0) predose caliper, X-Ray, ultrasound and CT measurements where available as well as a complete physical examination were recorded.
# SARS-CoV-2 [9] = assay type: cell-based; conditions: VERO cells
# [10] = test system: VERO cells infected with SARS-CoV-2; assay type: cell-based; conditions: approximately 5 μM MPL
# [11] = Blood plasma levels in pet dogs of the veterinary trial; assay type: in vivo, dog; conditions: plasma, oral, 179 mg/kg bw; dog 003-001 that achieved a partial response; read-out: monepantel blood plasma level
# Protocol: In a Phase 2 veterinary clinical trial, monepantel was administered as tablets daily to six pet dog patients (dog identification numbers: 001-001, 001-002, 001-003, 003-001, 004-002 and 004-003) with treatment naïve B cell lymphoma at a target dose of 179 mg/kg bw. Superficial tumour lesions were measured with calipers, while lesions within the body were assessed by X-Ray, ultrasound, computer tomography (CT) and/or physical palpitation. Baseline Day 0 (D0) predose caliper, X-Ray, ultrasound and CT measurements where available as well as a complete physical examination were recorded.
# An inverse correlation between RECIST1.1 response and blood plasma levels of monepantel and monepantel sulfone was evident. The one dog (003-001) that achieved a partial response, recorded monepantel and […] of 0.1 and 6.7 μM, respectively.
# [12] = PA02, after three days of treatment
# [13] = PA04, after three days of treatment
# [14] = PA06, after three days of treatment
# [15] = pet dogs, monepantel tablets daily, target dose 179 mg/kg bw, one value per dog, 179 mg/kg
# [16] = six pet dogs, tablets daily, 179 mg/kg bw
structure (smiles),measurement,setting,value
"C[C@](C#N)(COc1cc(C#N)ccc1C(F)(F)F)NC(=O)c1ccc(SC(F)(F)F)cc1 [MPL, N-[(1S)-1-Cyano-2-(5-cyano-2-trifluoromethyl-phenoxy)-1-methyl-ethyl]-4-trifluoromethylsulfanyl-benzamide]",SARS-CoV-2 infectivity (TCID50),SARS-CoV-2 [1],reduced SARS-CoV-2 infectivity
same,SARS-CoV-2 RNA concentrations in the media (qPCR),SARS-CoV-2 [2],significantly decrease
same,effect upon SARS-CoV-2 infected VERO cells (LDH),VERO cells [3],no apparent effect
same,toxicity caused by SARS-CoV-2,VERO cells [3],appeared to increase toxicity
same,toxicity to Vero cells (LDH),VERO cells [3],significant toxicity
same,toxicity to uninfected VERO cells,VERO cells [3],some toxicity
same,SARS-CoV-2 toxicity,VERO cells [3]; African green monkey,does not apparently increase SARS-CoV-2 toxicity
same,IC50,VERO cells [4],~30 µM
same,reduction of PBMC RPS6KB1 phosphorylation levels relative to pre-treatment,"[5]; PA02, PA06 and PA07, after seven days of treatment",85.6%
same,reduction of PBMC RPS6KB1 phosphorylation levels relative to pre-treatment,[5]; [12],27.3%
same,reduction of PBMC RPS6KB1 phosphorylation levels relative to pre-treatment,[5]; [13],28.6%
same,reduction of PBMC RPS6KB1 phosphorylation levels relative to pre-treatment,[5]; [14],81.2%
same,mTOR signalling (decreased RPS6KB1 phosphorylation in PBMCs),[5]; four patients,inhibited in all four patients
same,RECIST1.1 response by CT,cancer; patient PA07,progressive disease
same,RECIST1.1 response by CT,"cancer; patients PA02, PA04 and PA06",stable disease
same,reduction of PBMC EIF-4EBP1 phosphorylation levels relative to pre-treatment,"[6]; PA02, after seven days of treatment",85.6%
same,reduction of PBMC EIF-4EBP1 phosphorylation levels relative to pre-treatment,[6]; [12],38.5%
same,reduction of PBMC EIF-4EBP1 phosphorylation levels relative to pre-treatment,[6]; [13],96.6%
same,reduction of PBMC EIF-4EBP1 phosphorylation levels relative to pre-treatment,[6]; [14],34.4%
same,"Blood plasma level of monepantel, Average","[7]; 0.25 h, average of patients",0.010 ∞M
same,Blood plasma level of monepantel,"[7]; 0.25 h, individual patients",6.46 ng/ml and 0 ng/ml (2×) and 12.2 ng/ml
same,"Blood plasma level of monepantel, Average","[7]; 0.5 h, average of patients",0.051 ∞M
same,Blood plasma level of monepantel,"[7]; 0.5 h, individual patients",39.4 ng/mL and 16.1 ng/mL and 10.5 ng/mL and 31 ng/mL
same,"Blood plasma level of monepantel, Average","[7]; 1 h, average of patients",0.137 ∞M
same,Blood plasma level of monepantel,"[7]; 1 h, individual patients",110 ng/mL and 46.2 ng/mL and 42.1 ng/mL and 61 ng/mL
same,"Blood plasma level of monepantel, Average","[7]; 2 h, average of patients",0.298 ∞M
same,Blood plasma level of monepantel,"[7]; 2 h, individual patients",99.1 ng/mL and 171 ng/mL and 112 ng/mL
same,"Blood plasma level of monepantel, Average","[7]; 4 h, average of patients",0.353 ∞M
same,Blood plasma level of monepantel,"[7]; 4 h, individual patients",104 ng/mL and 234 ng/mL and 144 ng/mL and 187 ng/mL
same,"Blood plasma level of monepantel, Average","[7]; 8 h, average of patients",0.145 ∞M
same,Blood plasma level of monepantel,"[7]; 8 h, individual patients",62.1 ng/mL and 63.6 ng/mL and 108 ng/mL and 40.2 ng/mL
same,"Blood plasma level of monepantel, Average","[7]; 12 h, average of patients",0.064 ∞M
same,Blood plasma level of monepantel,"[7]; 12 h, individual patients",26.9 ng/mL and 24.1 ng/mL and 52.5 ng/mL and 18.6 ng/mL
same,"Blood plasma level of monepantel, Average","[7]; 24 h, average of patients",0.030 ∞M
same,Blood plasma level of monepantel,"[7]; 24 h, individual patients",13.7 ng/mL and 11.6 ng/mL and 21.8 ng/mL and 9.95 ng/mL
same,"Blood plasma level of monepantel, Average","[7]; pre-dose D3, average of patients",10.7 ng/ml and 0.023 ∞M
same,Blood plasma level of monepantel,"[7]; pre-dose D3, individual patients",16.4 ng/mL and 8.07 ng/mL and 9.99 ng/mL and 8.33 ng/mL
same,"Blood plasma level of monepantel, Average","[7]; pre-dose D4, average of patients",9.2 ng/ml and 0.019 ∞M
same,Blood plasma level of monepantel,"[7]; pre-dose D4, individual patients",14.7 ng/mL and 6.98 ng/mL and 8.65 ng/mL and 6.44 ng/mL
same,"Blood plasma level of monepantel, Average","[7]; pre-dose D5, average of patients",6.9 ng/ml and 0.015 ∞M
same,Blood plasma level of monepantel,"[7]; pre-dose D5, individual patients",9.94 ng/mL and 6.86 ng/mL and 5.72 ng/mL and 5.03 ng/mL
same,"Blood plasma level of monepantel, Average","[7]; pre-dose D6, average of patients",6.3 ng/ml and 0.013 ∞M
same,Blood plasma level of monepantel,"[7]; pre-dose D6, individual patients",9.99 ng/mL and 7.22 ng/mL and 4.62 ng/mL and 3.34 ng/mL
same,"Blood plasma level of monepantel, Average","[7]; pre-dose D7, average of patients",5.4 ng/ml and 0.011 ∞M
same,Blood plasma level of monepantel,"[7]; pre-dose D7, individual patients",7.42 ng/mL and 6.39 ng/mL and 4.58 ng/mL and 3.32 ng/mL
same,"Blood plasma level of monepantel, Average","[7]; pre-dose D14, average of patients",4.4 ng/ml and 0.009 ∞M
same,Blood plasma level of monepantel,"[7]; pre-dose D14, individual patients",4.85 ng/mL and 5.25 ng/mL and 3.23 ng/mL
same,"Blood plasma level of monepantel, Average","[7]; pre-dose D21, average of patients",3.8 ng/ml and 0.008 ∞M
same,Blood plasma level of monepantel,"[7]; pre-dose D21, individual patients",4.34 ng/mL and 3.16 ng/mL
same,"Blood plasma level of monepantel, Average","[7]; pre-dose D28, average of patients",3.8 ng/ml and 0.008 ∞M
same,Blood plasma level of monepantel,"[7]; pre-dose D28, individual patients",4.65 ng/mL and 2.96 ng/mL
same,concentration at 0.25 h,"[7]; plasma, oral, 5 mg/kg bw, 0.25 h, average of patients, read-out: Blood plasma level of monepantel, Average",4.7 ng/mL
same,concentration at 0.5 h,"[7]; plasma, oral, 5 mg/kg bw, 0.5 h, average of patients, read-out: Blood plasma level of monepantel, Average",24.3 ng/mL
same,concentration at 1 h,"[7]; plasma, oral, 5 mg/kg bw, 1 h, average of patients, read-out: Blood plasma level of monepantel, Average",64.8 ng/mL
same,concentration at 2 h,"[7]; plasma, oral, 5 mg/kg bw, 2 h, average of patients, read-out: Blood plasma level of monepantel, Average",141 ng/mL
same,concentration at 2 h,"[7]; plasma, oral, 5 mg/kg bw, 2 h, individual patients, read-out: Blood plasma level of monepantel",183 ng/mL
same,concentration at 4 h,"[7]; plasma, oral, 5 mg/kg bw, 4 h, average of patients, read-out: Blood plasma level of monepantel, Average",167 ng/mL
same,concentration at 8 h,"[7]; plasma, oral, 5 mg/kg bw, 8 h, average of patients, read-out: Blood plasma level of monepantel, Average",68.5 ng/mL
same,concentration at 12 h,"[7]; plasma, oral, 5 mg/kg bw, 12 h, average of patients, read-out: Blood plasma level of monepantel, Average",30.5 ng/mL
same,concentration at 24 h,"[7]; plasma, oral, 5 mg/kg bw, 24 h, average of patients, read-out: Blood plasma level of monepantel, Average",14.3 ng/mL
same,RECIST 1.1 tumour response D14 Target Lesions,[8]; [15],PR (PR = partial response)
same,RECIST 1.1 tumour response Overall,[8]; [15],PR (PR = partial response)
same,target superficial lymph node caliper measurements at D28,"[8]; pet dogs, tablets daily, 179 mg/kg bw",four of four dogs achieving stable target superficial lymph node caliper measurements
same,RECIST 1.1 responses of the six dogs at D14,[8]; [16],"One dog achieved a partial response, four dogs achieved stable disease and one dog had progressive disease"
same,anti-cancer effect at D14,[8]; [16],strong anti-cancer effect
same,SARS-CoV-2 infectivity (TCID50) compared to no treatment,SARS-CoV-2 [9]; MPL 0.064 μM,significantly reduces SARS-CoV-2 infectivity
same,"SARS-CoV-2 infectivity (TCID50, repeat experiment) compared to no treatment",SARS-CoV-2 [9]; MPL 0.137 μM (greatest effect),significantly reduces SARS-CoV-2 infectivity
same,"SARS-CoV-2 infectivity (TCID50, repeat experiment)",SARS-CoV-2 [9]; MPL 0.411 μM and 0.046 μM,significantly reduced SARS-CoV-2 infectivity
same,SARS-CoV-2 infectivity (TCID50),"SARS-CoV-2 [9]; MPL 0.32, 1.6 and 8.0 μM",did not significantly reduce
same,protection against cell death following infection with SARS-CoV-2,[10],protected VERO cell against cell death
same,concentration at 14 day,[11],100 nM
